Test results published in patent publication US12109218B2, “Compositions of grapiprant and methods for using the same” (ARATANA THERAPEUTICS, INC., priority 2014, dated 2024).

System: meniscal release model of osteoarthritis
Test: Meniscal release model of osteoarthritis in dogs (Example 8)
Format: in vivo
Details: 5 mg/kg daily
Protocol: Twenty intact adult female hounds underwent surgical meniscal release of the right stifle and were maintained for at least 8 weeks to allow osteoarthritis to develop. […] Animals were randomized into three groups: negative control (n=6), positive control (n=7) treated with 5 mg/kg firocoxib daily, and grapiprant (n=7) dosed once daily at 30 mg/kg. Dosing was based on baseline bodyweight.
Baseline physical exams, bodyweights, hematology, serum chemistry and urinalysis were obtained on study Day −1 and repeated on Day 13. Orthopedic assessments were conducted on Day −1, Day 2, Day 6, and Day 13, including a kinetics assessment using the GAITRite system to determine left hindlimb: right hindlimb ratios for peak pressure, stride length, step length, and stance time, a 5-point scale lameness evaluation, VAS assessments of right hindlimb function, right stifle pain and effusion, and comfortable range of motion measurements of both stifles using a goniometer.

## CC1(C)OC(=O)C(OCC2CC2)=C1c1ccc(S(C)(=O)=O)cc1 [firocoxib, reference compound]
  peak pressure ratios, lameness and function scores compared to baseline: improved statistically significant mean peak pressure ratios on Day 13 and in mean lameness and mean function scores on Day 6 and 13 compared to baseline
